Test results published in patent US20120129842A1, “BISTHIAZOLE INHIBITORS OF PRO-MATRIX METALLOPROTEINASE ACTIVATION” (priority 2010, published 2012).
Where a name gives a salt, the structure may show the parent alone.

Assays:
[1] = biological target: proMMP13(1-268) (SEQ ID NO:7) (Homo sapiens, UniProt P45452); test: ThermoFluor binding assay with proMMP13(1-268); parameters: 6xHis (C); made in house; conditions: pH 7.0
Procedure: (§1) The ThermoFluor® (TF) assay is a 384-well plate-based binding assay that measures thermal stability of proteins (Biomol Screen 2001, 6, 429-40; Biochemistry 2005, 44, 5258-66). The experiments were carried out using instruments available from Johnson & Johnson Pharmaceutical Research & Development, LLC. TF dye used in all experiments was […] (1,8-ANS) (Invitrogen: A-47).
(§2) Compounds were arranged in a pre-dispensed plate (Greiner Bio-one: 781280), wherein compounds were serially diluted in 100% DMSO across 11 columns within a series. Columns 12 and 24 were used as DMSO reference and contained no compound. For multiple compound concentration-response experiments, the compound aliquots ([…]) were robotically predispensed directly into black 384-well polypropylene PCR microplates (Abgene: TF-0384/k) using a Cartesian Hummingbird liquid handler (DigiLab, Holliston, Mass.). Following compound dispense, protein and dye solutions were added to achieve the final assay volume of 3 μL. The assay solutions were overlayed with 1 μL of silicone oil (Fluka, type DC 200: 85411) to prevent evaporation.
(§3) Assay plates were robotically loaded onto a thermostatically controlled PCR-type thermal block and then heated from 40 to 90° C. at a ramp-rate of 1° C./min for all experiments. Fluorescence was measured by continuous illumination with UV light (Hamamatsu LC6) supplied via fiber optics and filtered through a band-pass filter (380-400 nm; >6 OD cutoff). Fluorescence emission of the entire 384-well plate was detected by measuring light intensity using a CCD camera (Sensys, Roper Scientific) filtered to detect 500±25 nm, resulting in simultaneous and independent readings of all 384 wells. A single image with 20-sec exposure time was collected at each temperature, and the sum of the pixel intensity in a given area of the assay plate was recorded vs temperature and fit to standard equations to yield the Tm (J Biomol Screen 2001, 6, 429-40).
(§4) Thermodynamic parameters necessary for fitting compound binding for each proMMP were estimated by differential scanning calorimetry (DSC) and from ThermoFluor® data. The heat capacity of unfolding for each protein was estimated from the molecular weight and from ThermoFluor® dosing data.
The proMMP13(1-268) (SEQ ID NO:7) protein sample preparations included a desalting buffer exchange step via a PD-10 gravity column (GE Healthcare). The desalting buffer exchange was performed prior to diluting the protein to the final assay concentration of 3.5 μM. The concentration of proMMP13(1-268) (SEQ ID NO:7) was estimated spectrophotometrically based on a calculated extinction coefficient of ε280=37000 M^−1cm^−1, a calculated molecular weight of 30.8 kDa, and calculated pI of 5.33. ThermoFluor® reference conditions were defined as follows: 100 μg/mL proMMP13(1-268) (SEQ ID NO:7), 25 μM 1,8-ANS, pH 7.0 Buffer (50 mM HEPES pH 7.0, 100 mM NaCl, 0.001% Tween-20, 2.5 mM MgCl2, 300 μM CaCl2). The thermodynamic parameters for proMMP13(1-268) (SEQ ID NO:7) are as follows: Tm (° C.)=67 (+/−0.1), ΔUH(Tm) (cal mol^−1)=107000(+/−5000), ΔUS(Tm) (cal mol^−1 K^−1)=318, ΔUCp (cal mol^−1 K^−1)=2600.

[2] = biological target: T1, full-length proMMP9(1-707) (SEQ ID NO:1) (Homo sapiens, UniProt P14780, R574P); test: proMMP9/MMP3 P126 Activation Assay; type: biochemical; conditions: 20 nM proMMP9, 20 nM MMP3, 80 min 37° C.
T1 construct: made in house; host or cells: HEK293 (proMMP9, secreted); E. coli (MMP3)
Procedure: The reaction volume was 50 μL. […] Reactivity of residual MMP3 towards P-126 substrate was minimal under these conditions.

[3] = biological target: T2, proMMP9(67-444;ΔFnII) (SEQ ID NO:5) (Homo sapiens, UniProt P14780, DEL216-390); test: ThermoFluor binding assay with proMMP9(67-444;ΔFnII); conditions: pH 7.0
T2 construct: start methionine (N); made in house; host or cells: E. coli BL21(DE3) RIL
T2 sequence (P14780 with tags, fused parts or gaps DEL216-390): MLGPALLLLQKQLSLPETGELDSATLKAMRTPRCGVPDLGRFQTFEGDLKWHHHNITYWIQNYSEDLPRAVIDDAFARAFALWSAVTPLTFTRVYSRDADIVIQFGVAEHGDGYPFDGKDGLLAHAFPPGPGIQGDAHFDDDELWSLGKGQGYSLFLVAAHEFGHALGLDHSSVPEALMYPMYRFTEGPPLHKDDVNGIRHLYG
Procedure: as §1, §2, §3, §4
The protein sample preparations had to include a desalting buffer exchange step via a PD-10 gravity column (GE Healthcare). The desalting buffer exchange was performed prior to diluting the protein to the final assay concentration of 3.5 μM proMMP9(67-444;ΔFnII) (SEQ ID NO:5). The concentration of proMMP9(67-444;ΔFnII) (SEQ ID NO:5) was determined spectrophotometrically based on a calculated extinction coefficient of ε280=33900 M^−1cm^−1, a calculated molecular weight of 22.6 kDa, and calculated pI of 5.20. ThermoFluor® reference conditions were defined as follows: 80 μg/mL (3.5 μM) proMMP9(67-444;ΔFnII) (SEQ ID NO:5), 50 μM 1,8-ANS, pH 7.0 Buffer (50 mM HEPES pH 7.0, 100 mM NaCl, 0.001% Tween-20, 2.5 mM MgCl2, 300 μM CaCl2). The thermodynamic parameters for proMMP9(67-444;ΔFnII) (SEQ ID NO:5) are as follows: Tm (° C.)=63 (+/−0.1), ΔUH(Tm) (cal mol^−1)=105000(+/−5000), ΔUS(Tm) (cal mol^−1 K^−1)=[…], ΔUCp (cal mol^−1 K^−1)=2000.

[4] = biological target: T3, proMMP9(20-445;ΔFnII) (SEQ ID NO:6) (Homo sapiens, UniProt P14780, DEL216-390); test: ThermoFluor binding assay with proMMP9(20-445;ΔFnII); conditions: pH 7.0
T3 construct: start methionine (N); made in house; host or cells: E. coli BL21(DE3) RIL
T3 sequence (P14780 with tags, fused parts or gaps DEL216-390): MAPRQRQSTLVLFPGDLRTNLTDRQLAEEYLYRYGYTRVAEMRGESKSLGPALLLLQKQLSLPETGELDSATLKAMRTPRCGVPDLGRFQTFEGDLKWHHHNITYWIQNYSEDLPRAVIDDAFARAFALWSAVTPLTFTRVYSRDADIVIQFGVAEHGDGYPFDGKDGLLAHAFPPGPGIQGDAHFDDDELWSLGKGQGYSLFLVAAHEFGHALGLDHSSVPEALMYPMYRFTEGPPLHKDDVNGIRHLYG
Procedure: as §1, §2, §3, §4
The protein sample preparations included a desalting buffer exchange step via a PD-10 gravity column (GE Healthcare). The desalting buffer exchange was performed prior to diluting the protein to the final assay concentration of 2.8 μM proMMP9(20-445;ΔFnII) (SEQ ID NO:6). The concentration of proMMP9(20-445;ΔFnII) (SEQ ID NO:6) was determined spectrophotometrically based on a calculated extinction coefficient of ε280=39880 M^−cm^−1, a calculated molecular weight of 28.2 kDa, and calculated pI of 5.5. ThermoFluor® reference conditions were define as follows: 80 μg/mL (2.8 μM) proMMP9(20-445;ΔFnII) (SEQ ID NO:6), 50 μM 1,8-ANS, pH 7.0 Buffer (50 mM HEPES pH 7.0, 100 mM NaCl, 0.001% Tween-20, 2.5 mM MgCl2, 300 μM CaCl2). The thermodynamic parameters for proMMP9(20-445;ΔFnII) (SEQ ID NO:6) are as follows: Tm (° C.)=72 (+/−0.1), ΔUH(Tm) (cal mol^−1)=160000(+/−5000), ΔUS(Tm) (cal mol^−1 K^−1)=434, ΔUCp (cal mol^−1 K^−)=2400.

T1 sequence (P14780 20-707 R574P): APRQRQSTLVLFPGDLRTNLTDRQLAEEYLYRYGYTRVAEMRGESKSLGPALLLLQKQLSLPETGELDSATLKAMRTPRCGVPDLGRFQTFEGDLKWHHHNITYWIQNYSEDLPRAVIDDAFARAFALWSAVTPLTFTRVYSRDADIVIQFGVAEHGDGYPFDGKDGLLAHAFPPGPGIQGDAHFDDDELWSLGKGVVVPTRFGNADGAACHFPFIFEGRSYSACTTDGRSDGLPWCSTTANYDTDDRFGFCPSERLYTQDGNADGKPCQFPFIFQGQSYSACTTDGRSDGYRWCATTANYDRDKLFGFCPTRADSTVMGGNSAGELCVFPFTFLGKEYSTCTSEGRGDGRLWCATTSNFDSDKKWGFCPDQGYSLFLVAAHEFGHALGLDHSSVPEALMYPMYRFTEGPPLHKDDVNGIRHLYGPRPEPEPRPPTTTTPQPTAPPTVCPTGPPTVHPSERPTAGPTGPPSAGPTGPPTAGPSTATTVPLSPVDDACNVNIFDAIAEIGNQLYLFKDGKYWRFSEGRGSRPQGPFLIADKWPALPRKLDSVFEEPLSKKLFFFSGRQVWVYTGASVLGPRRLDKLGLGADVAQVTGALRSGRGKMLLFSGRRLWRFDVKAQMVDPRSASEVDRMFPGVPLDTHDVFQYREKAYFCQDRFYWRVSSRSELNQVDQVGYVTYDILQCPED

**Q.** What does the source list for `CC(C)Oc1ccc(C(N)=O)cc1Nc1nc(-c2sc(N)nc2C(F)(F)F)cs1` [Example 150, 3-(2′-Amino-4′-trifluoromethyl-[4,5′]bithiazolyl-2-ylamino)-4-isopropoxy-benzamide]?
**A.** Kd [1]: 0.22 µM; IC50 [2]: 1.2 µM; Kd [3]: 1.3 µM; Kd [4]: 0.16 µM

**Q.** Which results are given for `COc1ccc(C(N)=O)cc1Nc1nc(-c2sc(N)nc2C(F)(F)F)cs1` [Example 87, 3-(2′-Amino-4′-trifluoromethyl-[4,5′]bithiazolyl-2-ylamino)-4-methoxy-benzamide.TFA]?
**A.** Kd [1]: 3 µM; IC50 [2]: 1.2 µM; Kd [3]: 0.38 µM; Kd [4]: 0.4 µM

**Q.** Which Kd [1] does the source give for `Cc1nc(C)c(-c2csc(Nc3cc(S(N)(=O)=O)cc4c3OCC4)n2)s1` [Example 33, 7-(2′,4′-Dimethyl-[4,5′]bithiazolyl-2-ylamino)-2,3-dihydro-benzofuran-5-sulfonic acid amide] here?
**A.** 2.9 µM

**Q.** What about the IC50 [2] of the same compound?
**A.** 7.3 µM

**Q.** What about the Kd [3] of the same compound?
**A.** > 95 µM

**Q.** And the Kd [4]?
**A.** 13 µM

**Q.** Which Kd [1] does the source give for `Cc1nc(C(=O)N2CCN(C(C)C)CC2)sc1-c1csc(Nc2cc(C(N)=O)ccc2OC(C)C)n1` [Example 103, 4-Isopropoxy-3-[2′-(4-isopropyl-piperazine-1-carbonyl)-4′-methyl-[4,5]bithiazolyl-2-ylamino]-benzamide.TFA] here?
**A.** 0.45 µM

**Q.** And the IC50 [2]?
**A.** 0.097 µM

**Q.** And the Kd [3]?
**A.** 1 µM

**Q.** What about the Kd [4] of the same compound?
**A.** 0.48 µM

**Q.** Which Kd [1] does the source give for `CC(=O)Nc1nc(C)c(-c2csc(Nc3cc(S(N)(=O)=O)ccc3OC(C)C)n2)s1` [Example 63, N-[2-(2-Isopropoxy-5-sulfamoyl-phenylamino)-4′-methyl-[4,5′]bithiazolyl-2′-yl]-acetamide.TFA] here?
**A.** 1.3 µM

**Q.** And the IC50 [2]?
**A.** 0.75 µM

**Q.** What about the Kd [3] of the same compound?
**A.** 0.79 µM

**Q.** What about the Kd [4] of the same compound?
**A.** 0.52 µM

**Q.** `COc1ccc(C#N)cc1Nc1nc(-c2sc(N)nc2C)cs1` [Example 40, 3-(2′-Amino-4′-methyl-[4,5′]bithiazolyl-2-ylamino)-4-methoxy-benzonitrile.HBr] was tested. Which Kd [1] did it give?
**A.** 1.5 µM

**Q.** What about the IC50 [2] of the same compound?
**A.** 0.9 µM

**Q.** What about the Kd [3] of the same compound?
**A.** 0.31 µM

**Q.** And the Kd [4]?
**A.** 0.99 µM

**Q.** Which results are given for `CC(=O)Nc1nc(C)c(-c2csc(Nc3cccc4c3OCCO4)n2)s1` [Example 19, N-[2-(2,3-Dihydro-benzo[1,4]dioxin-5-ylamino)-4′-methyl-[4,5′]bithiazolyl-2′-yl]-acetamide]?
**A.** Kd [1]: 62 µM; Kd [3]: 11 µM; Kd [4]: 17 µM

**Q.** Which results are given for `CCN(CC)S(=O)(=O)c1ccc(OC)c(Nc2nc(-c3sc(N)nc3C)cs2)c1` [Example 21, 3-(2′-Amino-4′-methyl-[4,5′]bithiazolyl-2-ylamino)-N,N-diethyl-4-methoxy-benzenesulfonamide.HBr]?
**A.** Kd [1]: 1.7 µM; Kd [3]: 2.9 µM; Kd [4]: 9.6 µM

**Q.** For `Cc1nc(C(=O)N2CCC(O)CC2)sc1-c1csc(Nc2cc(C(N)=O)ccc2OC(C)C)n1` [Example 105, 3-[2′-(4-Hydroxy-piperidine-1-carbonyl)-4′-methyl-[4,5′]bithiazolyl-2-ylamino]-4-isopropoxy-benzamide.TFA], which Kd [1] is on record?
**A.** 1.3 µM

**Q.** What about the Kd [3] of the same compound?
**A.** 2.9 µM

**Q.** And the Kd [4]?
**A.** 0.24 µM

**Q.** Which results are given for `CNC(=O)c1ccc(OC)c(Nc2nc(-c3sc(NC(C)=O)nc3C)cs2)c1` [Example 65, 3-(2′-Acetylamino-4′-methyl-[4,5′]bithiazolyl-2-ylamino)-4-methoxy-N-methyl-benzamide.TFA]?
**A.** Kd [1]: 7.8 µM; Kd [3]: 2.8 µM; Kd [4]: 3 µM

**Q.** With `CCOC(=O)c1ccc(OCC)c(Nc2nc(-c3sc(C)nc3C)cs2)c1` [Example 82, 3-(2′,4′-Dimethyl-[4,5′]bithiazolyl-2-ylamino)-4-ethoxy-benzoic acid ethyl ester.HBr] as the compound, how does the Kd [1] read?
**A.** 13 µM

**Q.** And the Kd [3]?
**A.** 3.5 µM

**Q.** And the Kd [4]?
**A.** 15 µM

**Q.** `COc1ccc(C(N)=O)cc1Nc1nc(-c2sc(N3CCN(C)CC3)nc2C)cs1` [Example 93, 4-Methoxy-3-[4′-methyl-2′-(4-methyl-piperazin-1-yl)-[4,5′]bithiazolyl-2-ylamino]-benzamide.TFA] was tested. Which Kd [1] did it give?
**A.** 16 µM

**Q.** And the Kd [3]?
**A.** 2.5 µM

**Q.** What about the Kd [4] of the same compound?
**A.** 0.74 µM

**Q.** Which Kd [1] does the source give for `COc1ccc(C)cc1Nc1nc(-c2sc(N)nc2C)cs1` [Example 24, N^2-(2-Methoxy-5-methyl-phenyl)-4′-methyl-[4,5′]bithiazolyl-2,2′-diamine.HBr] here?
**A.** 25 µM

**Q.** What about the Kd [3] of the same compound?
**A.** 2.3 µM

**Q.** What about the Kd [4] of the same compound?
**A.** 8.6 µM

**Q.** What does the source list for `COc1ccc(C(=O)NCCN2CCCCC2)cc1Nc1nc(-c2sc(NC(C)=O)nc2C)cs1` [Example 58, 3-(2′-Acetylamino-4′-methyl-[4,5′]bithiazolyl-2-ylamino)-4-methoxy-N-(2-piperidin-1-yl-ethyl)-benzamide.TFA]?
**A.** Kd [1]: > 95 µM; Kd [3]: 6.5 µM; Kd [4]: 19 µM

**Q.** How did the Kd [1] turn out when `COc1ccc(-c2ccccc2)cc1Nc1nc(-c2sc(N)nc2C)cs1` [Example 23, N^2-(4-Methoxy-biphenyl-3-yl)-4′-methyl-[4,5′]bithiazolyl-2,2′-diamine.HBr] was run?
**A.** 0.98 µM

**Q.** What about the Kd [3] of the same compound?
**A.** 15 µM

**Q.** What about the Kd [4] of the same compound?
**A.** 12 µM
